The results in this text go back to patent US11485731B2, “Compounds and methods useful in the treatment of a PRMT5-mediated disorder” (ARGONAUT THERAPEUTICS LIMITED, priority 2017, dated 2022).

In the test the target is human PRMT5/MEP50 (Homo sapiens (Human), UniProt O14744). Nature of the test: PRMT5 chemiluminescent assay. Format: biochemical. As to conditions: human PRMT5/MEP50 expressed in HEK293 cells; biotinylated histone peptides; Histone H4 monomethyl R3 antibody; chemiluminescent readout. The procedure, abridged: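 HEK293-expressed PRMT5/MEP50, diluted to 5 ng/µL in assay buffer, reacted 60 min with rotation on plate-bound biotinylated histone peptides. Product was detected with anti-histone H4 R3 monomethyl antibody (60 min), then HRP secondary (30 min) and chemiluminescent substrate. IC50 values came from the chemiluminescence signal.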
human PRMT5/MEP50, sequence (O14744 whole entry): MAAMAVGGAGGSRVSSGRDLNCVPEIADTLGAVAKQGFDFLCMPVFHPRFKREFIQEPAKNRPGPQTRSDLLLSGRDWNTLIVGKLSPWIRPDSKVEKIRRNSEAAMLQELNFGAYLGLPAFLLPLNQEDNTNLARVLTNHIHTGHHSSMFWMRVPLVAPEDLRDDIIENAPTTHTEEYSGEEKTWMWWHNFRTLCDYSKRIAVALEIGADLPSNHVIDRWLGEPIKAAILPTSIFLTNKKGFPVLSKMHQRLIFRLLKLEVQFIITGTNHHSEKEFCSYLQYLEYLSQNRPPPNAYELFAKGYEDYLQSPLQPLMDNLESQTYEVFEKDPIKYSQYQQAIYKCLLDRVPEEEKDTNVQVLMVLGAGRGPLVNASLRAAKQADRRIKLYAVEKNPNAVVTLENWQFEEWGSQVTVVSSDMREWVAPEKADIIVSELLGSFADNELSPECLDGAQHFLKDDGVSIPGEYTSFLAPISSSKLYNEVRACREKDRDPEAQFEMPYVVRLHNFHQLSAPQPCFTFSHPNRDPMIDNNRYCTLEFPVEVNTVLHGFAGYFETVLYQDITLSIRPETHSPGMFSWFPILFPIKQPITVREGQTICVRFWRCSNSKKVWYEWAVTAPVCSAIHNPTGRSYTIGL
human PRMT5/MEP50, sequence (Q9BQA1 whole entry partner): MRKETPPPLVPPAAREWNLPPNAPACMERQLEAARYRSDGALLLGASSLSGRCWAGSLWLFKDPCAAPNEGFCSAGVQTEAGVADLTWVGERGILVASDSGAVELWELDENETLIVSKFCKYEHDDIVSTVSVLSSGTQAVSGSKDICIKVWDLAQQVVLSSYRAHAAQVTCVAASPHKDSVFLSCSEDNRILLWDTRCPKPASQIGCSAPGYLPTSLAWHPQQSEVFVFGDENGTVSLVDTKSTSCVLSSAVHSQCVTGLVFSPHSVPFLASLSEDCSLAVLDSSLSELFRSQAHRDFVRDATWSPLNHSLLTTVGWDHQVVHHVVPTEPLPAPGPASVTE
A word on the IC50: it is the midpoint of a concentration-inhibition curve. Compound `O=C(NCC(O)CN1CCc2ccccc2C1)N1CC(C(=O)N2C3CCC2COC3)C1` (stereo not shown) [Example 1X, 3-(3-oxa-8-azabicyclo[3.2.1]octane-8-carbonyl)-N-(3-(3,4-dihydroisoquinolin-2(1H)-yl)-2-hydroxypropyl)azetidine-1-carboxamide] came in with an IC50 of 376 nM.
With `O=C(NCC(O)CN1CCc2ccccc2C1)N1CCC(Cc2ccccc2)CC1` (stereo not shown) [Example 1Q, 4-benzyl-N-(3-(3,4-dihydroisoquinolin-2(1H)-yl)-2-hydroxypropyl)piperidine-1-carboxamide] the figure was 276 nM; with `CS(=O)(=O)N1CCCN(C(=O)NC[C@H](O)CN2CCc3ccccc3C2)CC1` [Example 1AQ, (S)-N-(3-(3,4-dihydroisoquinolin-2(1H)-yl)-2-hydroxypropyl)-4-(methylsulfonyl)-1,4-diazepane-1-carboxamide], 77 nM; with `O=C(NC[C@H](O)CN1CCc2ccccc2C1)N1CCC(N2CCOCC2)C1` (stereo partly drawn) [Example 1CD, N-((S)-3-(3,4-dihydroisoquinolin-2(1H)-yl)-2-hydroxypropyl)-3-morpholinopyrrolidine-1-carboxamide], 12300 nM.
As for `O=C(NC[C@H](O)CN1CCc2ccccc2C1)N1CCS(=O)(=O)C(c2ccccc2)C1` (stereo partly drawn) [Example 1CG, N-((S)-3-(3,4-dihydroisoquinolin-2(1H)-yl)-2-hydroxypropyl)-2-phenylthiomorpholine-4-carboxamide 1,1-dioxide], the figure is 422 nM.
With `O=C(NCC(O)CN1CCc2sccc2C1)N1CCC(c2ccccc2)C1` (stereo not shown) [Example 1AE, N-(3-(6,7-dihydrothieno[3,2-c]pyridin-5(4H)-yl)-2-hydroxypropyl)-3-phenylpyrrolidine-1-carboxamide] the figure was 72 nM.
`O=C(OCC(O)CN1CCc2ccccc2C1)N1CCCCC1` (stereo not shown) [Example 3B, 2-hydroxy-3-(1,2,3,4-tetrahydroisoquinolin-2-yl)propyl piperidine-1-carboxylate] registered a half-inhibitory concentration (IC50) of 613 nM.
As for `O=C(NC[C@H](O)CN1CCc2ccccc2C1)N1CCC(O)(c2ccccc2)C1` (stereo partly drawn) [Example 1BI, N-((S)-3-(3,4-dihydroisoquinolin-2(1H)-yl)-2-hydroxypropyl)-3-hydroxy-3-phenylpyrrolidine-1-carboxamide], the figure is 399 nM.
With `O=C(NCC(O)CN1CCc2ccccc2C1)N1CC(C(=O)N2CCOCC2)C1` (stereo not shown) [Example 1W, N-(3-(3,4-dihydroisoquinolin-2(1H)-yl)-2-hydroxypropyl)-3-(morpholine-4-carbonyl)azetidine-1-carboxamide] the figure was 7390 nM; with `O=C(OCC(O)CN1CCc2ccccc2C1)N1CCCc2ccccc21` (stereo not shown) [Example 4AG, 3-(3,4-dihydroisoquinolin-2(1H)-yl)-2-hydroxypropyl 3,4-dihydroquinoline-1(2H)-carboxylate], 360 nM; with `O=C(OCC(O)CN1CCc2ccccc2C1)N1CC(C(=O)N2C3CCC2COC3)C1` (stereo not shown) [Example 4U, 3-(3,4-dihydroisoquinolin-2(1H)-yl)-2-hydroxypropyl 3-(3-oxa-8-azabicyclo[3.2.1]octane-8-carbonyl)azetidine-1-carboxylate], 2980 nM.
As for `O=C(NCC(O)CN1CCc2ccccc2C1)N1CCCCc2ccccc21` (stereo not shown) [Example 1J, N-[2-hydroxy-3-(1,2,3,4-tetrahydroisoquinolin-2-yl)propyl]-2,3,4,5-tetrahydro-1H-1-benzazepine-1-carboxamide], the figure is 320 nM.
For `O=C(NC[C@H](O)CN1CCc2ccccc2C1)N1CCC[C@H](C2CCOCC2)C1` (single isomer, unassigned) [Example 5G, (R)-N-((S)-3-(3,4-dihydroisoquinolin-2(1H)-yl)-2-hydroxypropyl)-3-(tetrahydro-2H-pyran-4-yl)piperidine-1-carboxamide compound or (S)-N-((S)-3-(3,4-dihydroisoquinolin-2(1H)-yl)-2-hydroxypropyl)-3-(tetrahydro-2H-pyran-4-yl)piperidine-1-carboxamide], half-maximal inhibition (IC50) required 394 nM.
Compound `O=C(NCC(O)CN1CCc2ccccc2C1)N1CCCCCC1` (stereo not shown) [Example 1N, N-[2-hydroxy-3-(1,2,3,4-tetrahydroisoquinolin-2-yl)propyl]azepane-1-carboxamide] gave a concentration for half-maximal inhibition (IC50) of 2380 nM.
As for `O=C(NC[C@H](O)CN1CCc2ccccc2C1)N1CCCC(N2CCCSCC2)C1` (stereo partly drawn) [Example 1CB, N-((S)-3-(3,4-dihydroisoquinolin-2(1H)-yl)-2-hydroxypropyl)-3-(1,4-thiazepan-4-yl)piperidine-1-carboxamide], the concentration for half-maximal inhibition (IC50) was 337 nM.
As for `O=C(NC[C@H](O)CN1CCc2ccccc2C1)N1CCS[C@@H](c2ccccc2)C1` (single isomer, unassigned) [Example 5D, (S)-N-((S)-3-(3,4-dihydroisoquinolin-2(1H)-yl)-2-hydroxypropyl)-2-phenylthiomorpholine-4-carboxamide or (R)-N-((S)-3-(3,4-dihydroisoquinolin-2(1H)-yl)-2-hydroxypropyl)-2-phenylthiomorpholine-4-carboxamide], the figure is 101 nM; as for `O=C(NCC(O)CN1CCc2ccsc2C1)N1CCC(c2ccccc2)C1` (stereo not shown) [Example 1Af, N-(3-(4,7-dihydrothieno[2,3-c]pyridin-6(5H)-yl)-2-hydroxypropyl)-3-phenylpyrrolidine-1-carboxamide], 749 nM; as for `CC(=O)N1CCN(C(=O)NCC(O)CN2CCc3ccccc3C2)CC1` (stereo not shown) [Example 1B, 4-acetyl-N-[2-hydroxy-3-(1,2,3,4-tetrahydroisoquinolin-2-yl)propyl]piperazine-1-carboxamide], 9910 nM.
Regarding `O=C(NC[C@H](O)CN1CCc2ccccc2C1)N1CCCOCC1` [Example 1BP, (S)-N-(3-(3,4-dihydroisoquinolin-2(1H)-yl)-2-hydroxypropyl)-1,4-oxazepane-4-carboxamide], the IC50 came out at 7330 nM.
The compound `O=C(OCCCN1CCc2ccccc2C1)N1CCC(c2ccccc2)C1` (stereo not shown) [Example 7, 3-(3,4-dihydroisoquinolin-2(1H)-yl)propyl 3-phenylpyrrolidine-1-carboxylate] had an IC50 of 342 nM. Compared with the last compound, the IC50 is about 21-fold lower.
`O=C(NC[C@H](O)CN1CCc2ccccc2C1)N1CCCN(C(=O)c2cccs2)CC1` [Example 1AW, (S)-N-(3-(3,4-dihydroisoquinolin-2(1H)-yl)-2-hydroxypropyl)-4-(thiophene-2-carbonyl)-1,4-diazepane-1-carboxamide] yielded an IC50 of 7020 nM.
With `O=C(OC[C@H](O)CN1CCc2ccccc2C1)N1CC[C@H](c2ccccc2)C1` [Example 4L, (R)-3-(3,4-dihydroisoquinolin-2(1H)-yl)-2-hydroxypropyl (R)-3-phenylpyrrolidine-1-carboxylate] the figure was 13 nM; with `O=C(NC[C@H](O)CN1CCc2ccccc2C1)N1CCCC(N2CCSCC2)C1` (stereo partly drawn) [Example 1BX, N-((S)-3-(3,4-dihydroisoquinolin-2(1H)-yl)-2-hydroxypropyl)-3-thiomorpholinopiperidine-1-carboxamide], 634 nM.
As for `O=C(NCC(O)CN1CCc2ccccc2C1)N1CCN(c2ccccc2)CC1` (stereo not shown) [Example 1C, N-[2-hydroxy-3-(1,2,3,4-tetrahydroisoquinolin-2-yl)propyl]-4-phenylpiperazine-1-carboxamide], the figure is 1240 nM.
With `O=C(NCC(O)CN1CCc2sccc2C1)N1CCCC(c2ccccc2)C1` (stereo not shown) [Example 1AC, N-(3-(6,7-dihydrothieno[3,2-c]pyridin-5(4H)-yl)-2-hydroxypropyl)-3-phenylpiperidine-1-carboxamide] the figure was 384 nM.
